Source: PMC8119466, “A screen of FDA-approved drugs identifies inhibitors of protein tyrosine phosphatase 4A3 (PTP4A3 or PRL-3)” (Scientific Reports, 2021)
Structures can show the parent of a compound that is named as a salt. Where two headings read alike, the source gives them in different places.

How the values were obtained:
Type in all cases: biochemical
recombinant PRL-1 = target: T1, recombinant PRL-1 (Homo sapiens, UniProt Q93096); assay: In vitro phosphatase assay (DiFMUP hydrolysis), PRL-1; also: test concentration or dose not given here
T1 construct: 6xHis (N, cleaved yes); made in house; host or cells: E. coli One Shot BL21 Star
T1 sequence (Q93096 1-173): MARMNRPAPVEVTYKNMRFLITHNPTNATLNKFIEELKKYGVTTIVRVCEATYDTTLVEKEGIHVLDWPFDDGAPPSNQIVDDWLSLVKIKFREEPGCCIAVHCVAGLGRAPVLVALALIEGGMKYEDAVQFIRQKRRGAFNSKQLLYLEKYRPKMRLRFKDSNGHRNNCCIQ

recombinant PRL-3 = target: T2, recombinant PRL-3 (Homo sapiens, UniProt O75365); assay: In vitro phosphatase assay (DiFMUP hydrolysis), PRL-3; also: test concentration or dose not given here
T2 construct: 6xHis (N, cleaved yes); made in house; host or cells: E. coli One Shot BL21 Star
T2 sequence (O75365 whole entry): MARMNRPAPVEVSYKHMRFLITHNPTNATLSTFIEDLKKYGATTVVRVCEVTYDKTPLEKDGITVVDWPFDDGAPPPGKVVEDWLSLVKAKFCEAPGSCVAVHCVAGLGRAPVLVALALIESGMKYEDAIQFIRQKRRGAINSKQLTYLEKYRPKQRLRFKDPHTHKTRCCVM

recombinant PRL-2 = target: T3, recombinant PRL-2 (Homo sapiens, UniProt Q12974); assay: In vitro phosphatase assay (DiFMUP hydrolysis), PRL-2;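 also: PRL-2 activity read as DiFMUP hydrolysis after 20 min at room temperature with drug, enzyme first pre-reduced at 4 °C for 20 min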
T3 construct: 6xHis (N, cleaved yes); made in house; host or cells: E. coli One Shot BL21 Star
T3 sequence (Q12974 1-167): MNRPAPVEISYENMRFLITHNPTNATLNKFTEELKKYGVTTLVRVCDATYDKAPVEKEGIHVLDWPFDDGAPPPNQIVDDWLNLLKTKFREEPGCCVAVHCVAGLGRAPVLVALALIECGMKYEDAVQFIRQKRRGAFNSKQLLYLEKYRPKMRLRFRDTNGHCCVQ

[1] = FDA-approved drug screen, activity compared to DMSO

Structure (SMILES) | % Phosphatase Activity (compared to DMSO) PRL-1 (recombinant PRL-1; [1]) [%] | % Phosphatase Activity (compared to DMSO) PRL-3 (recombinant PRL-3; [1]) [%] | % Phosphatase Activity (compared to DMSO) PRL-2 (recombinant PRL-2; [1]) [%] | % Phosphatase Activity (compared to DMSO) PRL-1 (recombinant PRL-1) [%] | % Phosphatase Activity (compared to DMSO) PRL-3 (recombinant PRL-3) [%] | % Phosphatase Activity (compared to DMSO) PRL-2 (recombinant PRL-2) [%]
CCCc1nn(C)c2c(=O)[nH]c(-c3cc(S(=O)(=O)N4CCN(C)CC4)ccc3OCC)nc12.CS(=O)(=O)O [Sildenafil Mesylate] | 94 | 94 | 79 | – | – | –
CCCc1nn(C)c2c(=O)[nH]c(-c3cc(S(=O)(=O)N4CCN(C)CC4)ccc3OCC)nc12 [Sildenafil] | 75 | 99 | 72 | – | – | –
COc1cc(C2Oc3cc([C@H]4Oc5cc(O)cc(O)c5C(=O)[C@@H]4O)ccc3OC2CO)ccc1O (stereo partly drawn) [Silibinin] | 88 | 87 | 87 | – | – | –
C[C@H](Cc1cc2c(c(C(N)=O)c1)N(CCCO)CC2)NCCOc1ccccc1OCC(F)(F)F [Silodosin] | 117 | 95 | 104 | – | – | –
CCC(C)(C)C(=O)O[C@H]1C[C@@H](C)C=C2C=C[C@H](C)[C@H](CC[C@@H]3C[C@@H](O)CC(=O)O3)[C@H]21 [Simvastatin] | 84 | 91 | 94 | – | – | –
CN[C@@H]1[C@@H](O)[C@@H](O[C@@H]2[C@@H](O)[C@H](O[C@H]3OC(CN)=CC[C@H]3N)[C@@H](N)C[C@H]2N)OC[C@]1(C)O [Sisomicin sulfate] | 83 | 107 | 84 | – | – | –
N[C@@H]1CN(c2c(F)cc3c(=O)c(C(=O)O)cn([C@@H]4C[C@@H]4F)c3c2Cl)CC12CC2.O [Sitafloxacin Hydrate] | 91 | 81 | 90 | – | – | –
N[C@@H](CC(=O)N1CCn2c(nnc2C(F)(F)F)C1)Cc1cc(F)c(F)cc1F [Sitagliptin phosphate monohydrate] | 117 | 89 | 120 | – | – | –
CC(C)(C)C(=O)Oc1ccc(S(=O)(=O)Nc2ccccc2C(=O)NCC(=O)O)cc1 [Sivelestat sodium] | 89 | 75 | 86 | – | – | –
Nc1ccc(C(=O)[O-])c(O)c1.[Na+] [Sodium 4-Aminosalicylate] | 90 | 69 | 119 | – | – | –
Nc1ccc(C(=O)NCC(=O)[O-])cc1.O.[Na+] [Sodium 4-aminohippurate Hydrate] | 84 | 84 | 87 | – | – | –
O=N[O-].[Na+] [Sodium Nitrite] | – | – | – | 94 | 75 | 116
O=C(O)CCCc1ccccc1 [Sodium Phenylbutyrate] | 103 | 82 | 110 | – | – | –
O=S(=O)(O)Oc1ccc(C(c2ccc(OS(=O)(=O)O)cc2)c2ccccn2)cc1 [Sodium Picosulfate] | 115 | 81 | 110 | – | – | –
O=C1O[C@H]([C@@H](O)CO)C([O-])=C1O.[Na+] [Sodium ascorbate] | 85 | 113 | 71 | – | – | –
CCCC(=O)[O-].[Na+] [Sodium butyrate] | 97 | 89 | 90 | – | – | –
O=C([O-])c1ccccc1O.[Na+] [Sodium salicylate] | – | – | – | 130 | 95 | 103
CC(C)OC(=O)[C@H](C)N[P@](=O)(OC[C@H]1O[C@@H](n2ccc(=O)[nH]c2=O)[C@](C)(F)[C@@H]1O)Oc1ccccc1 [Sofosbuvir (PSI-7977, GS-7977)] | 87 | 89 | 96 | – | – | –
O=C(O[C@H]1CN2CCC1CC2)N1CCc2ccccc2[C@@H]1c1ccccc1 [Solifenacin succinate] | 88 | 114 | 99 | – | – | –

Structure (SMILES) | % Phosphatase Activity (compared to DMSO) PRL-1 (recombinant PRL-1; [1]) [%] | % Phosphatase Activity (compared to DMSO) PRL-3 (recombinant PRL-3; [1]) [%] | % Phosphatase Activity (compared to DMSO) PRL-2 (recombinant PRL-2; [1]) [%] | % Phosphatase Activity (compared to DMSO) PRL-1 (recombinant PRL-1) [%] | % Phosphatase Activity (compared to DMSO) PRL-3 (recombinant PRL-3) [%] | % Phosphatase Activity (compared to DMSO) PRL-2 (recombinant PRL-2) [%]
CNC(=O)c1cc(Oc2ccc(NC(=O)Nc3ccc(Cl)c(C(F)(F)F)c3)cc2)ccn1 [Sorafenib Tosylate] | 85 | 73 | 93 | – | – | –
CNC(=O)c1cc(Oc2ccc(NC(=O)Nc3ccc(Cl)c(C(F)(F)F)c3)cc2)ccn1 [Sorafenib] | 91 | 95 | 80 | – | – | –
OC[C@@H](O)[C@@H](O)[C@H](O)[C@@H](O)CO [Sorbitol] | 105 | 80 | 96 | – | – | –
CCOc1ccc(Cc2cc([C@@H]3O[C@H](SC)[C@@H](O)[C@H](O)[C@H]3O)ccc2Cl)cc1 [Sotagliflozin (LX4211)] | 100 | 85 | 88 | – | – | –
CC(C)NCC(O)c1ccc(NS(C)(=O)=O)cc1 (stereo not drawn) [Sotalol] | 98 | 78 | 97 | – | – | –
CN1CCN(c2nc(C3=C(c4c[nH]c5ccccc45)C(=O)NC3=O)c3ccccc3n2)CC1 [Sotrastaurin] | 83 | 85 | 89 | – | – | –
C[C@@H]1CN(c2c(F)c(N)c3c(=O)c(C(=O)O)cn(C4CC4)c3c2F)C[C@H](C)N1 [Sparfloxacin] | 87 | 121 | 98 | – | – | –
CN[C@@H]1[C@H](O)[C@H](NC)[C@H]2O[C@@]3(O)C(=O)C[C@@H](C)O[C@H]3O[C@@H]2[C@H]1O.Cl.Cl [Spectinomycin HCl] | 109 | 77 | 110 | – | – | –
CC(=O)S[C@@H]1CC2=CC(=O)CC[C@]2(C)[C@H]2CC[C@@]3(C)[C@@H](CC[C@@]34CCC(=O)O4)[C@H]12 [Spironolactone] | 84 | 68 | 87 | – | – | –
C[C@]12Cc3c[nH]nc3C[C@@H]1CC[C@@H]1[C@@H]2CC[C@@]2(C)[C@H]1CC[C@]2(C)O [Stanozolol] | – | – | – | 89 | 93 | 84
Cc1cn([C@H]2C=C[C@@H](CO)O2)c(=O)[nH]c1=O [Stavudine (d4T)] | 104 | 88 | 90 | – | – | –
[H]/N=C(/N)N[C@H]1[C@H](O)[C@@H](O)[C@H](O[C@@H]2O[C@@H](C)[C@](O)(C=O)[C@H]2O[C@@H]2O[C@@H](CO)[C@H](O)[C@@H](O)[C@@H]2NC)[C@@H](N/C(N)=N\[H])[C@@H]1O [Streptomycin sulfate] | 105 | 85 | 89 | – | – | –
O=C(O)CCC(=O)Nc1ccc(S(=O)(=O)Nc2nccs2)cc1 [Succinylsulfathiazole] | 85 | 85 | 97 | – | – | –
CC1(C)[C@H](C(=O)O)N2C(=O)C[C@H]2S1(=O)=O [Sulbactam sodium] | 111 | 89 | 112 | – | – | –
CC1(C)[C@H](C(=O)O)N2C(=O)C[C@H]2S1(=O)=O [Sulbactam] | 95 | 81 | 91 | – | – | –
Nc1ccc(S(=O)(=O)NC(=O)c2ccccc2)cc1 [Sulfabenzamide] | 93 | 83 | 121 | – | – | –
CC(=O)NS(=O)(=O)c1ccc(N)cc1 [Sulfacetamide Sodium] | 91 | 74 | 109 | – | – | –
COc1ncnc(NS(=O)(=O)c2ccc(N)cc2)c1OC [Sulfadoxine] | 110 | 76 | 106 | – | – | –
[H]/N=C(/N)NS(=O)(=O)c1ccc(N)cc1 [Sulfaguanidine] | 97 | 77 | 90 | – | – | –
